Laboratory results: patent US5244908A, “Imidazopyridine derivatives and their pharmaceutical use” (Takeda Chemical Industries, Ltd., priority 1990, dated 1993)
Where a name gives a salt, the structure may show the parent alone.

Molecular target: calmodulin (Bos taurus, UniProt P62157)
Test: Calmodulin inhibitory activity (calmodulin-activated cyclic nucleotide phosphodiesterase, [3H]cGMP)
Type: biochemical
Settings: 10^-5 M

Compound	inhibition at 10 µM
CC(C)S(=O)(=O)NCCSc1cccc2nccn12 [Compound 5, 5-[2-(Isopropylsulfonylamino)ethylthio]imidazo[1,2-a]pyridine]	50%
CCCCCCCCCCCCCCCCS(=O)(=O)NCCSc1cccc2nccn12 [Compound 9, 5-[2-(Hexadecylsulfonylamino)ethylthio]imidazo[1,2-a]pyridine]	100%
CN(C)Cc1cnc2cccc(SCCNS(C)(=O)=O)n12 [Compound 16, 3-Dimethylaminomethyl-5-[2-(methylsulfonylamino)ethylthio]imidazo[1,2-a]pyridine.dihydrochloride]	66%
CS(=O)(=O)NCCCSc1cccc2nccn12 [Compound 27, 5-[3-(Methylsulfonylamino)propylthio]imidazo[1,2-a]pyridine]	51%
O=S(=O)(/C=C/c1ccccc1)N(CCSc1cccc2nccn12)S(=O)(=O)/C=C/c1ccccc1 [Compound 50, 5-[2-[N,N-di-(E)-Styrylsulfonylamino]ethylthio]imidazo[1,2-a]pyridine]	65%
CC(=O)Nc1nc(C)c(S(=O)(=O)NCCSc2cccc3nccn23)s1 [Compound 51, 5-[2-[2-(Acetylamino)-4-(methyl)-(5-thiazolyl)sulfonylamino]ethylthio]imidazo[1,2-a]pyridine]	83%
CS(=O)(=O)NCCOc1cccc2nccn12 [Compound 62, 5-[2-(Methylsulfonylamino)ethyloxy]imidazo[1,2-a]pyridine]	79%
CS(=O)(=O)NCC(Oc1cccc2nccn12)c1ccccc1 (stereo not drawn) [Compound 74, 5-[2-(Methylsulfonylamino)-1-(phenyl)ethyloxy]imidazo[1,2-a]pyridine]	50%
O=S(=O)(NCC(Oc1cccc2nccn12)c1ccccc1)C(F)(F)F (stereo not drawn) [Compound 75, 5-[[1-(Phenyl)-2-(trifluoromethylsulfonylamino)]ethyloxy]imidazo[1,2-a]pyridine]	55%
O=S(=O)(N1CCC(Oc2cccc3nccn23)CC1)C(F)(F)F [Compound 77, 5-[1-(Trifuloromethylsulfonyl)-4-piperidyloxy]imidazo[1,2-a]pyridine]	80%

Other lines, results leading:

inhibition at 10 µM	Compound
64%	O=S(=O)(NCCSc1cccc2nccn12)c1ccccc1 [Compound 30, 5-[2-(Phenylsulfonylamino)ethylthio]imidazo[1,2-a]pyridine]
53%	O=S(=O)(NCCSc1cccc2nccn12)c1ccc(Cl)cc1 [Compound 34, 5-[2-[4-(Chloro)phenylsulfonylamino]ethylthio]imidazo[1,2-a]pyridine]
58%	O=S(=O)(NCCSc1cccc2nccn12)c1cc(Cl)c(Cl)cc1Cl [Compound 37, 5-[2-[2,4,5-(Trichloro)phenylsulfonylamino]ethylthio]imidazo[1,2-a]pyridine]
100%	O=S(=O)(NCCSc1cccc2nccn12)c1cccc2ccccc12 [Compound 42, 5-[2-[(1-Naphthyl)sulfonylamino]ethylthio]imidazo[1,2-a]pyridine]
65%	O=S(=O)(NCCSc1cccc2nccn12)c1ccc2ccccc2c1 [Compound 44, 5-[2-[(2-Naphthyl)sulfonylamino]ethylthio]imidazo[1,2-a]pyridine]
50%	CN(C)c1cccc2c(S(=O)(=O)NCCSc3cccc4nccn34)cccc12 [Compound 48, 5-[2-[5-(Dimethylamino)-(1-naphthylsulfonylamino)]ethylthio]imidazo[1,2-a]pyridine]
62%	Cc1cn2c(SCCNS(=O)(=O)c3cccc4ccccc34)cccc2n1 [Compound 56, 2-Methyl-5-[2-(1-naphthylsulfonylamino)ethylthio]imidazo[1,2-a]pyridine]
56%	O=S(=O)(NCCOc1cccc2nccn12)c1cccc2ccccc12 [Compound 78, 5-[2-(1-(Naphthyl)sulfonylamino)ethyloxy]imidazo[1,2-a]pyridine]
